Experimental data reported in patent US20260035387A1 (BIOGEN MA INC., priority 2022, published 2026).

Test system: mutant Huntington (HTT) protein
Assay: HTT Mutant HTRF iPSC assay (mHTT protein lowering)
Type: cell-based
Conditions: human iPSC derived from a HTT patient with a poly-Q49 mutation

Row | SMILES | IC50 [µM]
1 | Cc1cn2cc(NC(=O)c3cc4ccc(N5C[C@@H]6C[C@H]5CN6C(C)C)nc4s3)cc(F)c2n1 [Compound 189, N-(8-fluoro-2-methylimidazo[1,2-a]pyridin-6-yl)-6-((1S,4S)-5-isopropyl-2,5-diazabicyclo[2.2.1]heptan-2-yl)thieno[2,3-b]pyridine-2-carboxamide] | < 0.1
2 | COc1cn2nc(C)cc2cc1NC(=O)c1cc2ccc(N3CCC(N(C)C)C3)nc2s1 (centres unmarked) [Compound 190, 6-(3-(dimethylamino)pyrrolidin-1-yl)-N-(6-methoxy-2-methylpyrazolo[1,5-a]pyridin-5-yl)thieno[2,3-b]pyridine-2-carboxamide] | < 0.1
3 | COc1nc(NC(=O)c2cc3ccc(N4CCC(N(C)C)C4)nc3s2)cn2cc(C)nc12 (centres unmarked) [Compound 191, 6-(3-(dimethylamino)pyrrolidin-1-yl)-N-(8-methoxy-2-methylimidazo[1,2-a]pyrazin-6-yl)thieno[2,3-b]pyridine-2-carboxamide] | < 0.1
4 | CN(C)[C@@H]1CCN(c2ccc3cc(C(=O)Nc4cc(F)c5nn(C)cc5c4)sc3n2)C1 [Compound 192, (R)-6-(3-(dimethylamino)pyrrolidin-1-yl)-N-(7-fluoro-2-methyl-2H-indazol-5-yl)thieno[2,3-b]pyridine-2-carboxamide] | < 0.1
5 | Cc1cn2cc(NC(=O)c3cc4ccc(N5CCNC6(CC6)C5)nc4s3)nc(C)c2n1 [Compound 193, N-(2,8-dimethylimidazo[1,2-a]pyrazin-6-yl)-6-(4,7-diazaspiro[2.5]octan-7-yl)thieno[2,3-b]pyridine-2-carboxamide] | < 0.1
6 | [2H]C([2H])([2H])N1CCN(c2ccc3cc(C(=O)Nc4cn5cc(C)nc5c(C)n4)sc3n2)CC1 [Compound 195, N-(2,8-dimethylimidazo[1,2-a]pyrazin-6-yl)-6-(4-(methyl-d3)piperazin-1-yl)thieno[2,3-b]pyridine-2-carboxamide] | < 0.1
7 | Cc1cn2cc(NC(=O)c3cc4ccc(N5C[C@@H]6CNC[C@@H]65)nc4s3)cc(F)c2n1 [Compound 196, 6-((1S,5R)-3,6-diazabicyclo[3.2.0]heptan-6-yl)-N-(8-fluoro-2-methylimidazo[1,2-a]pyridin-6-yl)thieno[2,3-b]pyridine-2-carboxamide] | < 0.1
8 | CNC1CN(c2ccc3cc(C(=O)Nc4cc(F)c5nc(C)cn5c4)sc3n2)C1 [Compound 197, N-(8-fluoro-2-methylimidazo[1,2-a]pyridin-6-yl)-6-(3-(methylamino)azetidin-1-yl)thieno[2,3-b]pyridine-2-carboxamide] | < 0.1
9 | Cc1cn2cc(NC(=O)c3cc4ccc(N5CCC6NCC65)nc4s3)cc(F)c2n1 (centres unmarked) [Compound 200, 6-(2,6-diazabicyclo[3.2.0]heptan-2-yl)-N-(8-fluoro-2-methylimidazo[1,2-a]pyridin-6-yl)thieno[2,3-b]pyridine-2-carboxamide] | < 0.1
10 | Cc1cn2cc(NC(=O)c3cc4ccc(N5CCC6CNCC65)nc4s3)cc(F)c2n1 (centres unmarked) [Compound 201, N-(8-fluoro-2-methylimidazo[1,2-a]pyridin-6-yl)-6-(hexahydropyrrolo[3,4-b]pyrrol-1(2H)-yl)thieno[2,3-b]pyridine-2-carboxamide] | < 0.1
11 | Cc1cn2cc(NC(=O)c3cc4ccc(N5C[C@H]6CN[C@H]6C5)nc4s3)cc(F)c2n1 [Compound 202, 6-((1R,5R)-3,6-diazabicyclo[3.2.0]heptan-3-yl)-N-(8-fluoro-2-methylimidazo[1,2-a]pyridin-6-yl)thieno[2,3-b]pyridine-2-carboxamide] | < 0.1
12 | Cc1cn2cc(NC(=O)c3cc4ccc(N5CC(N(C)C)C(C)(C)C5)nc4s3)cc(F)c2n1 (centres unmarked) [Compound 203, 6-(4-(dimethylamino)-3,3-dimethylpyrrolidin-1-yl)-N-(8-fluoro-2-methylimidazo[1,2-a]pyridin-6-yl)thieno[2,3-b]pyridine-2-carboxamide] | < 0.1
13 | Cc1cn2cc(NC(=O)c3cc4ccc(N5CC(N(C)C)C5)nc4s3)cc(F)c2n1 [Compound 204, 6-(3-(dimethylamino)azetidin-1-yl)-N-(8-fluoro-2-methylimidazo[1,2-a]pyridin-6-yl)thieno[2,3-b]pyridine-2-carboxamide] | < 0.1
14 | Cc1cn2cc(NC(=O)c3cc4ccc(N5CCC(N6CC7(CC7)C6)C5)nc4s3)cc(F)c2n1 (centres unmarked) [Compound 207, 6-(3-(5-azaspiro[2.3]hexan-5-yl)pyrrolidin-1-yl)-N-(8-fluoro-2-methylimidazo[1,2-a]pyridin-6-yl)thieno[2,3-b]pyridine-2-carboxamide] | < 0.1
15 | Cc1cn2cc(NC(=O)c3cc4ccc(N5CCC6(CCCN6C)C5)nc4s3)nc(C)c2n1 (centres unmarked) [Compound 208, N-(2,8-dimethylimidazo[1,2-a]pyrazin-6-yl)-6-(1-methyl-1,7-diazaspiro[4.4]nonan-7-yl)thieno[2,3-b]pyridine-2-carboxamide] | < 0.1
16 | Cc1cn2cc(NC(=O)c3cc4ccc(N5CCC56CCNC6)nc4s3)cc(F)c2n1 (centres unmarked) [Compound 209, N-(8-fluoro-2-methylimidazo[1,2-a]pyridin-6-yl)-6-(1,6-diazaspiro[3.4]octan-1-yl)thieno[2,3-b]pyridine-2-carboxamide] | < 0.1

Row | SMILES | IC50 [µM]
17 | Cc1cn2cc(NC(=O)c3cc4ccc(N5CC(N(C)C)C6(CC6)C5)nc4s3)nc(C)c2n1 (centres unmarked) [Compound 211, 6-(7-(dimethylamino)-5-azaspiro[2.4]heptan-5-yl)-N-(2,8-dimethylimidazo[1,2-a]pyrazin-6-yl)thieno[2,3-b]pyridine-2-carboxamide] | < 0.1
18 | Cc1cn2cc(NC(=O)c3cc4ccc(NC5CN(C)CC5F)nc4s3)nc(C)c2n1 (centres unmarked) [Compound 214, N-(2,8-dimethylimidazo[1,2-a]pyrazin-6-yl)-6-((4-fluoro-1-methylpyrrolidin-3-yl)amino)thieno[2,3-b]pyridine-2-carboxamide] | < 0.1
19 | COc1cc2nn(C)cc2cc1NC(=O)c1cc2ccc(N3C[C@@H]4CN(C)C[C@@H]43)nc2s1 [Compound 216, N-(6-methoxy-2-methyl-2H-indazol-5-yl)-6-((1S,5R)-3-methyl-3,6-diazabicyclo[3.2.0]heptan-6-yl)thieno[2,3-b]pyridine-2-carboxamide] | < 0.1
20 | Cc1cn2cc(NC(=O)c3cc4ccc(N5C[C@H]6CN(C)C[C@H]65)nc4s3)cc(F)c2n1 [Compound 217, N-(8-fluoro-2-methylimidazo[1,2-a]pyridin-6-yl)-6-((1R,5S)-3-methyl-3,6-diazabicyclo[3.2.0]heptan-6-yl)thieno[2,3-b]pyridine-2-carboxamide] | < 0.1
21 | Cc1cn2cc(NC(=O)c3cc4ccc(N5C[C@H]6CN(C)C[C@H]65)nc4s3)nc(C)c2n1 [Compound 218, N-(2,8-dimethylimidazo[1,2-a]pyrazin-6-yl)-6-((1R,5S)-3-methyl-3,6-diazabicyclo[3.2.0]heptan-6-yl)thieno[2,3-b]pyridine-2-carboxamide] | < 0.1
22 | CNC1CCN(c2ccc3cc(C(=O)Nc4cn5cc(C)nc5c(C)n4)sc3n2)C1 (centres unmarked) [Compound 219, N-(2,8-dimethylimidazo[1,2-a]pyrazin-6-yl)-6-(3-(methylamino)pyrrolidin-1-yl)thieno[2,3-b]pyridine-2-carboxamide] | < 0.1
23 | CN[C@@H]1CCN(c2ccc3cc(C(=O)Nc4cc(OC)c5nc(C)cn5c4)sc3n2)C1 [Compound 220, (R)-N-(8-methoxy-2-methylimidazo[1,2-a]pyridin-6-yl)-6-(3-(methylamino)pyrrolidin-1-yl)thieno[2,3-b]pyridine-2-carboxamide] | < 0.1
24 | COc1cc2nn(C)cc2cc1NC(=O)c1cc2ccc(N3CCC4(CN(C)C4)C3)nc2s1 [Compound 221, N-(6-methoxy-2-methyl-2H-indazol-5-yl)-6-(2-methyl-2,6-diazaspiro[3.4]octan-6-yl)thieno[2,3-b]pyridine-2-carboxamide] | < 0.1
25 | Cc1cn2cc(NC(=O)c3cc4ccc(N5CCC6(CN(C)C6)C5)nc4s3)nc(C)c2n1 [Compound 226, N-(2,8-dimethylimidazo[1,2-a]pyrazin-6-yl)-6-(2-methyl-2,6-diazaspiro[3.4]octan-6-yl)thieno[2,3-b]pyridine-2-carboxamide] | < 0.1
26 | Cc1cn2cc(NC(=O)c3cc4ccc(N5CCC(C)(N(C)C)C5)nc4s3)nc(C)c2n1 (centres unmarked) [Compound 227, 6-(3-(dimethylamino)-3-methylpyrrolidin-1-yl)-N-(2,8-dimethylimidazo[1,2-a]pyrazin-6-yl)thieno[2,3-b]pyridine-2-carboxamide] | < 0.1
27 | Cc1cn2cc(NC(=O)c3cc4ccc(N5CCC(N6CCC6)C5)nc4s3)nc(C)c2n1 (centres unmarked) [Compound 228, 6-(3-(azetidin-1-yl)pyrrolidin-1-yl)-N-(2,8-dimethylimidazo[1,2-a]pyrazin-6-yl)thieno[2,3-b]pyridine-2-carboxamide] | < 0.1
28 | Cc1nc(NC(=O)c2cc3ccc(N4C[C@@H]5CN(C)C[C@@H]54)nc3s2)cc2cn(C)nc12 [Compound 229, N-(2,7-dimethyl-2H-pyrazolo[3,4-c]pyridin-5-yl)-6-((1S,5R)-3-methyl-3,6-diazabicyclo[3.2.0]heptan-6-yl)thieno[2,3-b]pyridine-2-carboxamide] | < 0.1
29 | Cc1nc(NC(=O)c2cc3ccc(N4CCC5(CCCN5C)C4)nc3s2)cc2cn(C)nc12 (centres unmarked) [Compound 230, N-(2,7-dimethyl-2H-pyrazolo[3,4-c]pyridin-5-yl)-6-(1-methyl-1,7-diazaspiro[4.4]nonan-7-yl)thieno[2,3-b]pyridine-2-carboxamide] | < 0.1
30 | COc1cc2nn(C)cc2cc1NC(=O)c1cc2ccc(N3CC(N4CCC4)C3)nc2s1 [Compound 232, 6-([1,3′-biazetidin]-1′-yl)-N-(6-methoxy-2-methyl-2H-indazol-5-yl)thieno[2,3-b]pyridine-2-carboxamide] | < 0.1
31 | Cc1cn2cc(NC(=O)c3cc4ccc(N5CCN(C(C)C)CC5)nc4s3)nc(C)c2n1 [Compound 233, N-(2,8-dimethylimidazo[1,2-a]pyrazin-6-yl)-6-(4-isopropylpiperazin-1-yl)thieno[2,3-b]pyridine-2-carboxamide] | < 0.1
32 | COc1cc2nn(C)cc2cc1NC(=O)c1cc2ccc(N3CCC(N4CCC4)C3)nc2s1 (centres unmarked) [Compound 234, 6-(3-(azetidin-1-yl)pyrrolidin-1-yl)-N-(6-methoxy-2-methyl-2H-indazol-5-yl)thieno[2,3-b]pyridine-2-carboxamide] | < 0.1
